Measured values reported in article PMC8153610, “Oleacein Intestinal Permeation and Metabolism in Rats Using an In Situ Perfusion Technique” (Pharmaceutics, 2021).
Read-outs that look alike come from different tables or passages of the source.

Columns and labels:
[1] = Stability in the perfusion solution (transport medium) at 37 °C; format: physicochemical; conditions: for Presence of degradation products / derivatives in the perfusion solution (stability study): OLEA in transport medium, 60 min
Description: The transport medium (TM; pH 7, 9.7 g/L HBSS buffered with HEPES 10 mM) was used to infuse the compounds via the intestine. […] Red phenol was assayed at 0.1 mg/mL. The stability of these test compounds, sampled at different times, was monitored in the perfusion solution at 37 °C for 60 min. Stability study and lumen samples: The stability and perfusate OLEA samples were defrosted and centrifuged (11,000× g, 4 °C, 10 min), and 100 µL of the upper phase was transferred to vials for analysis.

[2] = Metabolite profiling in lumen, plasma and ileum tissue after SPIP (LC–ESI–LTQ–Orbitrap–MS); format: in vivo
Description: The SPIP studies were performed in anesthetized rats according to the method described by López-Yerena and coworkers; the donor blood and surgical procedure (Figure 1) were as described in that study. Regarding the procedure of donor blood, the rats were anesthetized by isoflurane inhalation (2.5%), and the whole blood was collected via cardiac puncture. […]. In the case of the rats that underwent surgery, the rats received intraperitoneal administration of pentobarbital sodium (Dolethal) at a dose of 60 mg/kg, and a maintenance dose of isoflurane (1.5%) was given 50 min after the induction dose. Body temperature was maintained at 37 ± 0.5 °C throughout the experiment by means of a homeothermic blanket. An ileal segment of approximately 7–10 cm was cannulated. […] The phenol red included in the perfusion solution was used as non-absorbable marker for measuring water transport. To avoid the oxidation of OLEA, we carried out the SPIP experiments in a laboratory room with infrared light. Samples of both the intestinal lumen and mesenteric blood were collected simultaneously at 5 min intervals for 60 min. The outflow perfusate samples were collected in 2 mL amber vials and the blood was collected in pre-weighed lithium-heparinized tubes (BD Vacutainer). Next, the perfusate samples were centrifuged (7516× g for 10 min at 4 °C), and the tubes with blood samples were weighed and centrifuged (3000× g for 10 min at 4 °C). The supernatants were collected and immediately stored at −80 °C awaiting analysis by LC–ESI–LTQ–Orbitrap–MS.
Plasma: The extraction of OLEA and its metabolites was carried out with protein precipitation. Initially, the samples were thawed and centrifuged (11,000× g, 10 min at 4 °C). To precipitate proteins, we blended 100 µL of plasma with cold acetonitrile containing 2% of formic acid (1:5 v/v). Samples were vortex-mixed for 1 min and kept at −20 °C for 20 min. The samples were then centrifuged (11,000× g, 4 °C, 10 min), and finally 100 µL of the supernatant was transferred to vials for analysis.
Stability study and lumen samples: The stability and perfusate OLEA samples were defrosted and centrifuged (11,000× g, 4 °C, 10 min), and 100 µL of the upper phase was transferred to vials for analysis. […].
Ileum tissue: The intestinal segment perfunded with OLEA in the SPIP experiments was also analyzed to quantify the OLEA and its metabolites retained in the tissue. First, the intestinal segment was rinsed by several perfusions with TM and then cut into small sections and homogenized after the addition of water/acetonitrile (1:1 (v/v) with 0.1% ascorbic acid) with a small tissue disruptor (T10 basic ULTRA-TURRAX®, IKA laboratory technology, Staufen, Germany). The samples were sonicated in an ice bath (5 min), shaken for 1 min, and centrifuged (11,000× g, 4 °C, 10 min). To precipitate proteins, we blended 100 µL of the upper layer with cold acetonitrile containing 2% of formic acid (1:3 v/v). Samples were vortex-mixed for 1 min, kept at −20 °C for 20 min, and centrifuged again (11,000× g, 4 °C, 10 min) before analyzing the supernatant.
The quantification of OLEA and red phenol in the samples and the profiling and structural characterization of OLEA metabolites was carried out using LC–ESI–LTQ–Orbitrap–MS. LC separation was performed using an Accela chromatograph (Thermo Scientific, Hemel Hempstead, UK) equipped with a quaternary pump, a photodiode array detector, and a thermostated autosampler. A 5-μL sample aliquot was injected onto an Acquity^TM UPLC® BEH C18 Column (2.1 × 100 mm, i.d., 1.7 µm particle size) coupled to an Acquity^TM UPLC® BEH C18 Pre-Column (2.1 × 5 mm, i.d., 1.7 µm particle size) (Waters Corporation®, Wexford, Ireland) with the column temperature set at 50 °C. Eluent A was 0.05% (v/v) formic acid in water, and eluent B was 0.05% formic acid in methanol. […]. […]

[3] = cited from earlier work
[4] = Single-pass intestinal perfusion (SPIP) with mesenteric blood sampling: permeability and absorption; format: in vivo; conditions: ileum, SPIP in rats
Description: The transport medium (TM; pH 7, 9.7 g/L HBSS buffered with HEPES 10 mM) was used to infuse the compounds via the intestine. […] Red phenol was assayed at 0.1 mg/mL. The stability of these test compounds, sampled at different times, was monitored in the perfusion solution at 37 °C for 60 min.
Differences were considered significant at p < 0.05.

[5] = cited from earlier work; remark: listed apart in the source
[6] = design: method as in PMID 26904279; conditions: oral administration 300 mg/kg in rats; cited from earlier work
[7] = after OLEA perfusion (SPIP, 60 min)

With `OCCc1ccc(O)c(O)c1` [M2, hydroxytyrosol] the “Presence of degradation products / derivatives in the perfusion solution (stability study)” value [1] was “absence”, the “Detection in lumen, plasma and ileum tissue samples” value (from here on “Detection in lumen”) ([2]; rat, in vivo) was “found in lumen, plasma, and ileum tissue” and the “Time of highest concentration” value ([2]; rat, in vivo) was 55 min. For the same compound, the “Metabolite level in plasma relative to lumen (fold higher)” value ([2]; rat, in vivo, 60 min) was 27 fold.
In the case of `C/C=C(/CO)C(CC=O)CC(=O)OCCc1ccc(O)c(O)c1` (stereo not shown) [M3], the “Detection in lumen” value [2, 7] is reported as “detected in lumen, plasma, and ileum tissue”.
With `C/C=C(/C=O)C(CC(=O)O)CC(=O)OCCc1ccc(O)c(O)c1` (stereo not shown) [M4] the “Detection in lumen” value [2, 7] was “detected in lumen, plasma, and ileum tissue”, the “Metabolite level in plasma relative to lumen (fold higher)” value ([2]; after OLEA perfusion, at 60 min) was 29 fold and the “Time of highest concentration” value ([2]; plasma and lumen samples, after OLEA perfusion, p < 0.05) was 60 min.
For `C/C=C(/C=O)C(CC(=O)OCCc1ccc(O)c(O)c1)CC(O)O` (stereo not shown) [M5], the “Presence of degradation products / derivatives in the perfusion solution (stability study)” value [1] was “traces” and the “Detection in lumen” value [2, 7] was “detected in lumen, plasma, and ileum tissue”.
With `C/C=C(/C=O)C(CC=O)CC(=O)OCCc1ccc(O)c(OC)c1` (stereo not shown) [M6] the “Detection in lumen” value [2, 7] was “found in ileum tissue samples but not in the plasma and lumen”.
In the case of `C/C=C(/C=O)C(CC(=O)O)CC(=O)OCCc1ccc(O)c(OC)c1` (stereo not shown) [M7], the “Detection in lumen” value [2, 7] is reported as “detected in plasma and, after being secreted by an efflux membrane protein, in lumen samples”.
For `C/C=C(/C=O)C(CC(=O)OCCc1ccc(O)c(OC)c1)CC(O)O` (stereo not shown) [M8], the “Detection in lumen” value [2, 7] was “found in ileum tissue samples but not in the plasma and lumen”.
For `CC=C(CO)C(CC=O)CC(=O)OCCc1ccc(OC2OC(C(=O)O)C(O)C(O)C2O)c(O)c1` (stereo not shown) [M9], the “Main product of phase II biotransformation” value ([2]; all the samples (plasma, lumen, ileum tissue)) was “main product of phase II biotransformation reactions in all the samples”, the “Time of highest relative abundance” value ([2]; lumen samples, after OLEA perfusion, p < 0.05) was 55 to 60 min and the “Time of highest relative abundance” value ([2]; plasma, after OLEA perfusion, p < 0.05) was 45 to 60 min.
With `CC=C(C=O)C(CC(=O)OCCc1ccc(OC2OC(C(=O)O)C(O)C(O)C2O)c(OC)c1)CC(O)O` (stereo not shown) [M11] the “Detection in lumen” value [2, 7] was “detected in lumen and ileum tissue samples but not in plasma”.
For `COc1ccc2cc([C@H](C)C(=O)O)ccc2c1` [Naproxen], the “Peff ± SD” value ([3]; Colon) is listed as 2.06 ± 1.04 × 10^−4 cm/s, the “Peff ± SD” value ([3]; Ileum, ref 56) is listed as 1.78 ± 0.52 × 10^−4 cm/s and the “Peff ± SD” value ([3]; Ileum, ref 57) is listed as 1.17 ± 0.23 × 10^−4 cm/s. The “Peff ± SD” value ([3]; Jejunum, ref 33) was 1.19 ± 0.12 × 10^−4 cm/s, the “Peff ± SD” value ([3]; Jejunum, ref 56) was 1.47 ± 0.25 × 10^−4 cm/s and the “Peff ± SD” value ([3]; Jejunum, ref 58) was 1.17 ± 0.23 × 10^−4 cm/s.
With `C/C=C(/C=O)[C@@H](CC=O)CC(=O)OCCc1ccc(O)c(O)c1` [OLEA, Oleacein] the “Absorption (%)” value ([4]; mean ± SD, n = 4) was 48.98 ± 12.27%, the “Mean permeability ratio (Peff) of OLEA/naproxen” value ([4]; p > 0.05) was 1.24 and the Effective intestinal permeability (Peff) at 60 min ([4]; rat, pH 7, luminal disappearance, mean ± SD, n = 4, read-out: Intestinal effective permeability coefficient (Peff) ± SD) was 183 ± 18 ×10⁻⁶ cm/s. For the same compound, the “Stability in the perfusion solution” value ([1]; over 60 min, p > 0.05) was “remained stable”, the “log P (octanol/water)” value ([5]; ref 16) was 1.02 and the “log P (octanol/water)” value ([5]; ref 60) was 1.53. For the same compound, the “Detection in portal plasma” value [6] was “did not observe”.
In the case of elenolic acid, the “Detection in lumen” value [2, 7] is reported as “not detected in any sample”.
